Consider 13 compounds from ChEMBL document CHEMBL1201862, “PubChem BioAssay data set” (2004).

Molecules are shown by their SMILES.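 96-well plates; 48 h exposure; 5 concentrations. Endpoints by linear interpolation between flanking doses. Not reached: highest tested concentration assigned. GI50: concentration for 50% inhibition of growth.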 Calls of active or inactive are those of the source. Cut-off read from the data, not from the text of the source: active = GI50 up to about 1.1 µM and inactive = higher.

Holding throughout (assay): NCI anticancer screen, dose series, 48 h
For assay [1], the system named is A549.
In assay [2] the test system is HL-60.
Assay [3] has as its system HT-29.
In assay [4] the test system is NCI-H460.
Assay [5] has as its system NCI-H522.
Assay [6] relates to SF-539.
Assay [7] has as its system SK-MEL-5.
Assay [8] concerns SNB-75.
Assay [9] has as its system SR.
The subject of assay [10] is U-251.
The subject of assay [11] is UACC-62.
Assay [12] relates to UO-31.
In assay [13] the test system is A498.
The test system of assay [14] is COLO 205.
For assay [15], the system named is HCC 2998.
The subject of assay [16] is Malme-3M.
Assay [17] has as its system SK-MEL-2.
The subject of assay [18] is RPMI-8226.
For assay [19], the system named is SN12C.

For `COc1cc(C2C(Cl)C(=O)N2NC(=O)c2ccccc2O)cc(OC)c1OC` (stereo not drawn), the GI50 in assay [1] is 4.27 µM (inactive); in [2], 0.733 µM (active); in assay [3], 2.75 µM (inactive); in assay [4], 2.64 µM (inactive); in [5], 2.87 µM (inactive); in [6] it was 3.5 µM (inactive). In addition, the GI50 was 5.07 µM (inactive) in assay [7]; > 10 µM (inactive) in assay [8]; 2.98 µM (inactive) in [9]; 3.54 µM (inactive) in [10]; 2.89 µM (inactive) in assay [11]; 7.76 µM (inactive) in [12].
As for `COC(=O)C(=O)C(C(=O)C(=O)Nc1cccc(C(C)=O)c1)c1nc2ccccc2nc1O` (stereo not drawn), the GI50 in assay [13], in assay [1], in [14], in assay [15], in [2] and in [3] was > 100 µM (inactive) in each case. Besides, the GI50 in assay [16], in assay [4], in [5], in assay [6], in [17] and in assay [7] was > 100 µM (inactive) each time. Moreover, the GI50 in assay [8], in assay [11] and in [12] was > 100 µM (inactive) each time.
Take `CC(=O)NNc1nc(C)c(C(/C=C/c2ccc(Cl)cc2)=N\N=C(N)N)s1`: the GI50 in assay [1], in assay [14], in assay [15], in assay [2], in [3] and in assay [16] was > 100 µM (inactive) throughout. In addition, the GI50 in assay [4], in assay [5], in assay [18], in assay [6], in [7] and in assay [19] was > 100 µM (inactive) each time. The GI50 in assay [8], in assay [9], in assay [10], in assay [11] and in [12] was > 100 µM (inactive) throughout.
Take `O=C1CSc2cc([N+](=O)[O-])ccc2N1`: the GI50 in [13], in assay [1], in assay [14], in assay [15], in assay [3] and in assay [16] was > 100 µM (inactive) throughout. In addition, the GI50 in [4], in [5], in assay [6], in assay [17], in [7] and in [19] was > 100 µM (inactive) each time. In addition, the GI50 in [8] is 22.1 µM (inactive); in assay [10], > 100 µM (inactive); in assay [11], > 100 µM (inactive).
On to `N#CC(C(=O)CCC(=O)Nc1ccc(Cl)cc1)c1ccc(Cl)cc1` (stereo not drawn), for which the GI50 in [13], in assay [1], in assay [14], in assay [15], in assay [2] and in assay [3] was > 100 µM (inactive) each time. Moreover, the GI50 in assay [16], in [4], in assay [5], in assay [18], in [6] and in assay [17] was > 100 µM (inactive) in each case. The GI50 in assay [7] is > 100 µM (inactive); in [19], > 100 µM (inactive); in [10] it was > 100 µM (inactive); in assay [11], 10.7 µM (inactive); in assay [12] it was > 100 µM (inactive).
Regarding `COc1cc(C(C)=O)cc(C(=O)N(C(C)C)C(C)C)c1[Si](C)(C)C`, the GI50 in assay [13] was > 100 µM (inactive); in assay [1], 67.8 µM (inactive); in assay [14], > 100 µM (inactive); in [2] it was 24.3 µM (inactive); in assay [4], > 100 µM (inactive); in assay [5], 34.8 µM (inactive). Also, the GI50 in assay [6] is > 100 µM (inactive); in assay [17], > 100 µM (inactive); in assay [7], > 100 µM (inactive); in [8], 9.2 µM (inactive); in [10] it was > 100 µM (inactive); in [11], > 100 µM (inactive). In addition, in assay [12], the GI50 was > 100 µM (inactive).
Turning to `CCN(CC)CC(=O)NC1c2ccccc2Oc2c(C)cccc21` (stereo not drawn), the GI50 in assay [1] was > 100 µM (inactive); in [14], > 100 µM (inactive); in [15] it was > 100 µM (inactive); in assay [2], 37.7 µM (inactive); in assay [3], > 100 µM (inactive); in assay [4], > 100 µM (inactive). For the same compound, the GI50 in [18] is 78.7 µM (inactive); in assay [6] it was > 100 µM (inactive); in assay [7], 69.5 µM (inactive); in assay [19] it was > 100 µM (inactive); in [8], 49.5 µM (inactive); in assay [9], 57.7 µM (inactive). Besides, the GI50 is > 100 µM (inactive) in [11] and 23.2 µM (inactive) in [12].
For the compound `O=C1C2C(C(=O)N1c1ccccc1)C1(c3ccccc3)OC2(c2ccccc2)c2ccccc21` (stereo not drawn), the GI50 in assay [1], in assay [14], in assay [15], in assay [2], in [3] and in assay [16] was > 100 µM (inactive) each time. The GI50 in assay [4] is > 100 µM (inactive); in assay [5] it was 30.6 µM (inactive); in [18], > 100 µM (inactive); in [6], > 100 µM (inactive); in assay [17], > 100 µM (inactive); in assay [7], 2.78 µM (inactive). Moreover, the GI50 in [19] is > 100 µM (inactive); in assay [8] it was 12.8 µM (inactive); in assay [10] it was > 100 µM (inactive); in [11], > 100 µM (inactive); in [12], > 100 µM (inactive).
For `COc1cc2cc3c4c(cc(OC)c(OC)c4c2cc1OC)CCN3`, the GI50 was > 100 µM (inactive) in assay [1]; 22.6 µM (inactive) in assay [14]; 72.8 µM (inactive) in [15]; 18.2 µM (inactive) in [2]; 32.9 µM (inactive) in assay [3]; 44.5 µM (inactive) in assay [16]. Also, the GI50 is 21.5 µM (inactive) in [4]; 31.3 µM (inactive) in [5]; 20 µM (inactive) in assay [18]; 14.6 µM (inactive) in assay [6]; 22.1 µM (inactive) in assay [17]; 23.8 µM (inactive) in assay [7]. The GI50 in [19] is 46.7 µM (inactive); in assay [8], 44 µM (inactive); in assay [10], > 100 µM (inactive); in [11] it was 5.61 µM (inactive); in [12], 69.2 µM (inactive).
For `CN(C)C(=S)OC(Cn1cncn1)c1ccc(Cl)cc1Cl` (stereo not drawn), the GI50 in assay [13], in [1], in assay [14], in assay [15], in assay [2] and in assay [3] was > 100 µM (inactive) each time. The GI50 in assay [16], in assay [4], in assay [5], in [18], in assay [6] and in assay [17] was > 100 µM (inactive) each time. Besides, the GI50 is 96.4 µM (inactive) in assay [7]; > 100 µM (inactive) in assay [19]; > 100 µM (inactive) in [8]; > 100 µM (inactive) in assay [10]; > 100 µM (inactive) in [11]; > 100 µM (inactive) in [12].
With `CC#CC(=O)Nc1ccccc1CC(c1c[nH]c2ccccc12)c1c[nH]c2ccccc12`, the GI50 in assay [1] was 20.5 µM (inactive); in assay [14], 15.5 µM (inactive); in assay [15] it was 18.3 µM (inactive); in [2], 10.8 µM (inactive); in assay [3], 16.2 µM (inactive); in [16] it was 16.6 µM (inactive). Further, the GI50 in assay [5] is > 10 µM (inactive); in assay [18], 8.32 µM (inactive); in assay [6] it was 20.4 µM (inactive); in assay [17], 18.2 µM (inactive); in assay [7], 14.2 µM (inactive); in assay [19], 15.1 µM (inactive). In addition, the GI50 was 5.51 µM (inactive) in [8], 13.3 µM (inactive) in assay [11] and 7.19 µM (inactive) in [12].
With `O=C(O)C[C@@H](Cl)[C@H](NC(=O)OCc1ccccc1)C(=O)O`, the GI50 in assay [13], in [1], in assay [14], in [15], in assay [2] and in assay [3] was > 100 µM (inactive) throughout. The GI50 in [16], in assay [4], in assay [5], in assay [18], in [6] and in [17] was > 100 µM (inactive) in each case. The GI50 in assay [7], in assay [19], in assay [8], in assay [10], in assay [11] and in assay [12] was > 100 µM (inactive) throughout.
For `COc1ccc2cc3[n+](cc2c1OC)CCc1cc2c(cc1-3)OCO2` [BERBERINE CHLORIDE], the GI50 in assay [13] is 95.9 µM (inactive); in assay [2], 13.6 µM (inactive); in assay [3] it was 31 µM (inactive); in assay [16] it was 6.68 µM (inactive); in assay [4], 12.2 µM (inactive); in [6], 35.3 µM (inactive). The GI50 in assay [17] was 25.3 µM (inactive); in assay [7], 4.95 µM (inactive); in assay [8], 36.5 µM (inactive); in assay [11] it was 29.9 µM (inactive).
